This note sets out measurements from EP4778920A1, “INDAZOLONE COMPOUND, PREPARATION METHOD THEREFOR, PHARMACEUTICAL COMPOSITION, AND USE” (Shanghai Institute of Materia Medica, Chinese Academy of …, priority 2023, dated 2025).

SMILES strings stand for the structures. Read-outs that look alike come from different tables or passages of the source.

Assay type in all cases: cell-based
One assay relates to MM.1S cells. The experiment in a line: MM.1S cell proliferation inhibition (MTS assay). Conditions: Homo sapiens, MM1.S, 168 h, 7 days incubation, read-out: MM1.S (IC50, Inhibitory Activity of Compounds on MM.1S Cell Proliferation). As for the experimental part:
The cell concentration was diluted according to a 7-day incubation period, and 180 µL of cell suspension was added to each well of a 96-well plate, with 20,000 cells per well. […] The test compounds were prepared from a 10 mM stock solution and serially diluted in a 5-fold gradient, and 20 µL of the diluted solution was added to each compound-treated well (final DMSO concentration also 0.2%). The cells were incubated in a 37 °C, 5% CO2 incubator for 7 days. After incubation, the reaction solution was prepared according to the MTS assay kit instructions (Promega, G5430), and 20 µL was added to each well. The plate was incubated at 37 °C with 5% CO2 for 3-4 hours. The absorbance at 490 nm was measured using a microplate reader, and the absorbance at 690 nm was used as the background value. […] The IC50 values for cell proliferation inhibition were determined using GraphPad Prism 5.0. Each experiment was repeated three times, and three parallel replicates were performed in each experiment to calculate the mean value and standard deviation.
Inhibitory Activity of Compounds on MM.1S Cell Proliferation

Another assay deals with Mino cells. Briefly: Mino cell proliferation inhibition (MTS assay). To be noted: Homo sapiens, 72 h, 3 days incubation, read-out: Mino (IC50, Inhibitory Activity of Compounds on Mino Cell Proliferation). As for the experimental part: The cell concentration was diluted according to a 3-day incubation period, and 90 µL of cell suspension was added to each well of a 96-well plate, resulting in 8,000 cells per well. […] The test compounds were prepared from a 10 mM stock solution and serially diluted in a five-fold gradient. Similarly, 10 µL of the diluted compound solution was added to each compound-treated well (final DMSO concentration 0.2%).
The cells were incubated in a 37 °C, 5% CO2 incubator for 3 days. After incubation, the reaction solution was prepared according to the MTS assay kit instructions (Promega, G5430), and 20 µL was added to each well. The plate was further incubated at 37 °C with 5% CO2 for 3-4 hours. The absorbance at 490 nm was measured using a microplate reader, and the absorbance at 690 nm was used as the background value. The final raw data were calculated as OD490 - OD690. […] The IC50 values for cell proliferation inhibition were determined using GraphPad Prism 5.0. Each experiment was repeated three times, and three parallel replicates were performed in each experiment to calculate the mean value and standard deviation.
Table 2. Inhibitory Activity of Compounds on Mino Cell Proliferation

The next assay concerns MV-4-11 cells. The experiment in a line: MV-4-11 cell proliferation inhibition (MTS assay). Conditions: Homo sapiens. As for the experimental part: MV-4-11 cells were cultured in IMDM medium supplemented with 10% fetal bovine serum and collected. The cell concentration was diluted according to a 7-day incubation period, and 180 µL of cell suspension was added to each well of a 96-well plate, resulting in 2,000 cells per well. […] The test compounds were prepared from a 10 mM stock solution and serially diluted in a five-fold gradient, and 20 µL of the diluted compound solution was added to each compound-treated well (final DMSO concentration 0.2%). The cells were incubated in a 37 °C, 5% CO2 incubator for 7 days. After incubation, the reaction solution was prepared according to the MTS assay kit instructions (Promega, G5430), and 20 µL was added to each well. The plate was further incubated at 37 °C with 5% CO2 for 3-4 hours. The absorbance at 490 nm was measured using a microplate reader, and the absorbance at 690 nm was used as the background value. The final raw data were calculated as OD490 - OD690. […] The IC50 values for cell proliferation inhibition were determined using GraphPad Prism 5.0. Each experiment was repeated three times, and three parallel replicates were performed in each experiment to calculate the mean value and standard deviation.
Table 3. Inhibitory Activity of Compounds on MV-4-11 Cell Proliferation

Where [1] appears, read: MV4-11, 168 h, 7 days incubation, MTS, read-out: MV-411 (IC50, Inhibitory Activity of Compounds on MV-4-11 Cell Proliferation).
Where [2] appears, read: MV4-11, reference compounds, read-out: cell growth inhibitory activity (IC50).

For `O=C1CCC(n2[nH]c3c(OCc4ccc(CN5CCN(c6ccc(C(F)(F)F)cc6)CC5)cc4)cc(F)cc3c2=O)C(=O)N1` (centres unmarked) [Compound D17, 3-(5-Fluoro-3-oxo-7-((4-((4-(4-(trifluoromethyl)phenyl)piperazin-1-yl)methyl)benzyl)oxy)-1,3-dihydro-2H-indazol-2-yl)piperidine-2,6-dione], the IC50 with MM.1S cells, in the assay on Mino cells and in the assay on MV-4-11 cells (setting [1]) was less than 0.2 µM in each case.

As to `C[C@H](NC(=O)c1ccc2c(=O)n(C3CCC(=O)NC3=O)[nH]c2c1)c1ccccc1` (stereo partly drawn) [Compound D33, 2-(2,6-dioxopiperidin-3-yl)-3-oxo-N-((S)-1-phenylethyl)-2,3-dihydro-1H-indazole-6-carboxamide], the results for the IC50 in the assay on MM.1S cells, in the assay with Mino cells and in the assay with MV-4-11 cells (setting [1]) were more than 10 µM, more than 10 µM and more than 20 µM, respectively.

With `O=C1CCC(n2[nH]c3c(OCc4ccc(CN5CCN(c6ccc(Cl)cc6F)CC5)cc4)cc(F)cc3c2=O)C(=O)N1` (centres unmarked) [Compound D21, 3-(7-((4-((4-(4-chloro-2-fluorophenyl)piperazin-1-yl)methyl)benzyl)oxy)-5-fluoro-3-oxo-1,3-dihydro-2H-indazol-2-yl)piperidine-2,6-dione], the IC50 in the assay on MM.1S cells was less than 0.2 µM; with Mino cells it was 0.2 to 1 µM; in the assay with MV-4-11 cells (setting [1]), less than 0.2 µM.

On to `Cn1c2c(OCc3ccc(CN4CCOCC4)cc3)cccc2c(=O)n1C1CCC(=O)NC1=O` (centres unmarked) [Compound D22, 3-(1-Methyl-7-((4-(morpholinomethyl)benzyl)oxy)-3-oxo-1,3-dihydro-2H-indazol-2-yl)piperidine-2,6-dione], for which the IC50 was less than 0.2 µM in the assay with MM.1S cells, more than 10 µM in the assay with Mino cells and more than 20 µM in the assay on MV-4-11 cells (setting [1]).

For the molecule `O=C1CCC(n2[nH]c3cc(C(=O)NCc4ccc(Cl)cc4)ccc3c2=O)C(=O)N1` (centres unmarked) [Compound D29, N-(4-chlorobenzyl)-2-(2,6-dioxopiperidin-3-yl)-3-oxo-2,3-dihydro-1H-indazole-6-carboxamide], the IC50 in the assay on MM.1S cells was more than 10 µM; in the assay on Mino cells it was more than 10 µM; in the assay with MV-4-11 cells (setting [1]) it was more than 20 µM.

For the molecule `Cc1ccc(CNC(=O)c2ccc3c(=O)n(C4CCC(=O)NC4=O)[nH]c3c2)cc1` (centres unmarked) [Compound D36, 2-(2,6-dioxopiperidin-3-yl)-N-(4-methylbenzyl)-3-oxo-2,3-dihydro-1H-indazole-6-carboxamide], the results for the IC50 in the assay with MM.1S cells, in the assay with Mino cells and with MV-4-11 cells (setting [1]) were more than 10 µM, more than 10 µM and more than 20 µM, respectively.

For the molecule `O=C1CCC(n2[nH]c3c(OCc4ccc(CN5CCN(c6ccc(Cl)cc6Cl)CC5)cc4)cc(F)cc3c2=O)C(=O)N1` (centres unmarked) [Compound D16, 3-(7-((4-((4-(2,4-dichlorophenyl)piperazin-1-yl)methyl)benzyl)oxy)-5-fluoro-3-oxo-1,3-dihydro-2H-indazol-2-yl)piperidine-2,6-dione], the IC50 in the assay on MM.1S cells, in the assay on Mino cells and in the assay on MV-4-11 cells (setting [1]) was less than 0.2 µM throughout.

In the case of `O=C1CCC(n2[nH]c3c(OCc4ccc(CN5CC(N6CCOCC6)C5)cc4)cccc3c2=O)C(=O)N1` (centres unmarked) [Compound D13, 3-(7-((4-((3-morpholinoazetidin-1-yl)methyl)benzyl)oxy)-3-oxo-1,3-dihydro-2H-indazol-2-yl)piperidine-2,6-dione], the values for the IC50 in the assay on MM.1S cells, in the assay with Mino cells and in the assay with MV-4-11 cells (setting [1]) were less than 0.2 µM, 1 to 10 µM and 0.2 to 1 µM, respectively.

`Cn1c2c(OCc3ccc(CN4CCN(c5ccc(C#N)cc5F)CC4)cc3)cccc2c(=O)n1C1CCC(=O)NC1=O` (centres unmarked) [Compound D24, 4-(4-(4-(((2-(2,6-dioxopiperidin-3-yl)-1-methyl-3-oxo-2,3-dihydro-1H-indazol-7-yl)oxy)methyl)benzyl)piperazin-1-yl)-3-fluorobenzonitrile]: the IC50 was less than 0.2 µM in the assay on MM.1S cells, less than 0.2 µM with Mino cells and more than 20 µM with MV-4-11 cells (setting [1]).

As to `C[C@H](NC(=O)c1ccc2c(=O)n(C3CCC(=O)NC3=O)[nH]c2c1)c1ccc(F)cc1F` (stereo partly drawn) [Compound D38, N-((S)-1-(2,4-difluorophenyl)ethyl)-2-(2,6-dioxopiperidin-3-yl)-3-oxo-2,3-dihydro-1H-indazole-6-carboxamide], the IC50 was more than 10 µM in the assay with MM.1S cells, more than 10 µM in the assay with Mino cells and more than 20 µM in the assay on MV-4-11 cells (setting [1]).

Regarding `Cc1ccc([C@H](C)NC(=O)c2ccc3c(=O)n(C4CCC(=O)NC4=O)[nH]c3c2)cc1` (some centres unmarked) [Compound D31], the IC50 was more than 10 µM in the assay with MM.1S cells, more than 10 µM with Mino cells and more than 20 µM with MV-4-11 cells (setting [1]).

On to `C[C@@H](NC(=O)c1ccc2c(=O)n(C3CCC(=O)NC3=O)[nH]c2c1)c1ccccc1` (stereo partly drawn) [Compound D32, 2-(2,6-dioxopiperidin-3-yl)-3-oxo-N-((R)-1-phenylethyl)-2,3-dihydro-1H-indazole-6-carboxamide], for which the IC50 is more than 10 µM with MM.1S cells, more than 10 µM in the assay on Mino cells and more than 20 µM in the assay on MV-4-11 cells (setting [1]).

For the molecule `O=C1CCC(n2[nH]c3c(OCc4ccc(CN5CCN(c6ccc(Cl)cc6Cl)CC5)cc4)cccc3c2=O)C(=O)N1` (centres unmarked) [Compound D12, 3-(7-((4-((4-(2,4-dichlorophenyl)piperazin-1-yl)methyl)benzyl)oxy)-3-oxo-1,3-dihydro-2H-indazol-2-yl)piperidine-2,6-dione], the figures for the IC50 in the assay on MM.1S cells, in the assay on Mino cells and in the assay on MV-4-11 cells (setting [1]) were less than 0.2 µM, 0.2 to 1 µM and less than 0.2 µM, respectively.

Take `O=C1CCC(n2[nH]c3cc(C(=O)N[C@H](c4ccccc4)C(F)(F)F)ccc3c2=O)C(=O)N1` (stereo partly drawn) [Compound D37, 2-(2,6-dioxopiperidin-3-yl)-3-oxo-N-((R)-2,2,2-trifluoro-1-phenylethyl)-2,3-dihydro-1H-indazole-6-carboxamide]: the IC50 in the assay on MM.1S cells is more than 10 µM; with Mino cells it was more than 10 µM; in the assay with MV-4-11 cells (setting [1]) it was more than 20 µM.

Regarding `Cc1cccc2c1OCC[C@H]2NC(=O)c1ccc2c(=O)n(C3CCC(=O)NC3=O)[nH]c2c1` (stereo partly drawn) [Compound D42, 2-(2,6-dioxopiperidin-3-yl)-N-((R)-8-methylchroman-4-yl)-3-oxo-2,3-dihydro-1H-indazole-6-carboxamide], the IC50 with MM.1S cells was more than 10 µM; in the assay on Mino cells, more than 10 µM; with MV-4-11 cells (setting [1]) it was more than 20 µM.

In the case of `O=C1CC[C@H](N2Cc3c(OCc4ccc(CN5CCOCC5)cc4)cccc3C2=O)C(=O)N1` [CC-220, reference compound], the IC50 in the assay on MV-4-11 cells (setting [2]) was more than 20 µM.

As for `O=C1CCC(n2[nH]c3c(OCc4ccc(CN5CCN(c6ccc(C(F)(F)F)cc6)CC5)cc4)cccc3c2=O)C(=O)N1` (centres unmarked) [Compound D11, 3-(3-Oxo-7-((4-((4-(4-(trifluoromethyl)phenyl)piperazin-1-yl)methyl)benzyl)oxy)-1,3-dihydro-2H-indazol-2-yl)piperidine-2,6-dione], the IC50 is less than 0.2 µM with MM.1S cells, 0.2 to 1 µM in the assay on Mino cells and less than 0.2 µM in the assay on MV-4-11 cells (setting [1]).

Regarding `O=C1CCC(n2[nH]c3cc(C(=O)N[C@@H](c4ccccc4)C(F)(F)F)ccc3c2=O)C(=O)N1` (stereo partly drawn) [Compound D35, 2-(2,6-dioxopiperidin-3-yl)-3-oxo-N-((S)-2,2,2-trifluoro-1-phenylethyl)-2,3-dihydro-1H-indazole-6-carboxamide], the values for the IC50 in the assay on MM.1S cells, in the assay on Mino cells and in the assay with MV-4-11 cells (setting [1]) were more than 10 µM, more than 10 µM and more than 20 µM, respectively.

Consider `O=C1CC[C@H](n2[nH]c3c(OCc4cnc(-c5ccc(OC(F)(F)F)cc5)o4)cccc3c2=O)C(=O)N1` [Compound D26, (S)-3-(3-Oxo-7-((2-(4-(trifluoromethoxy)phenyl)oxazol-5-yl)methoxy)-1,3-dihydro-2H-indazol-2-yl)piperidine-2,6-dione], for which the IC50 fell in the range of 1 to 10 µM in the assay with MM.1S cells, 1 to 10 µM with Mino cells and 1 to 20 µM in the assay with MV-4-11 cells (setting [1]).

On to `Nc1cccc2c1C(=O)N(C1CCC(=O)NC1=O)C2=O` (centres unmarked) [pomalidomide, reference compound], for which the IC50 in the assay with MV-4-11 cells (setting [2]) was more than 20 µM.
